Source: patent publication US20210038559A1, “CANNABINOIDS AND DERIVATIVES FOR PROMOTING IMMUNOGENICITY OF TUMOR AND INFECTED CELLS” (priority 2018, published 2021)
Where a name gives a salt, the structure may show the parent alone.

System: MHC-I expression by COLO 205 cells
Test: cells
Assay type: cell-based, human
Settings: MHC-I expression, COLO 205 cells, compounds at 35 μM, 48 hours, flow cytometry (W6/32); for fold induction at 35 µM: Homo sapiens, COLO 205, 48 h, read-out: Induction Fold
Procedure: A panel of synthetic cannabinoids (Cayman Chemical, #9002891) was tested for MHC class I-inducing capability in COLO 205 cells as described above. COLO 205 cells were treated with the compounds at a concentration of 35 μM and evaluated for cell surface MHC class I expression after 48 hours. Cells were harvested, stained with MHC-I mAb W6/32 (Thermo Fisher). MHC-I expression was determined by flow cytometry.

SMILES | fold induction at 35 µM | Induction Fold [Fold]
O=C(Oc1ccc2ncccc2c1)c1cn(CC2CCCCC2)c2ccccc12 [Example 314, quinolin-6-yl 1-(cyclohexylmethyl)-1H-indole-3-carboxylate] | 1.32 | 
CCCCCn1c2ccccc2c2cc(C(=O)c3cccc4ccccc34)ccc21 [Example 315, naphthalen-1-yl(9-pentyl-9H-carbazol-3-yl)methanone] | 1.32 | 
CC(F)CCCn1cc(C(=O)c2cccc3ccccc23)c2ccccc21 (stereo not shown) [Example 316, (1-(4-fluoropentyl)-1H-indol-3-yl)(naphthalen-1-yl)methanone] | 1.32 | 
CCCC(F)Cn1nc(C(=O)NC(C(N)=O)C(C)C)c2ccccc21 (stereo not shown) [Example 317, N-(1-amino-3-methyl-1-oxobutan-2-yl)-1-(2-fluoropentyl)-1H-indazole-3-carboxamide] | 1.31 | 
O=C(c1ccc2c(c1)c1ccccc1n2CCCCCF)c1cccc2ccccc12 [Example 318, (9-(5-fluoropentyl)-9H-carbazol-3-yl)(naphthalen-1-yl)methanone] | 1.31 | 
O=C(NC12CC3CC(CC(C3)C1)C2)c1cn(CCCCCF)c2ccccc12 [Example 319, 1-(5-fluoropentyl)-N-tricyclo[3.3.1.13,7] dec-1-yl-1H-indole-3-carboxamide] |  | 1.31
COc1ccc(C(=O)c2c(C)n(CCN3CCOCC3)c3cc(I)ccc23)cc1 [Example 320, [6-iodo-2-methyl-1-[2-(4-morpholinyl)ethyl]-1H-indol-3-yl](4-methoxyphenyl)-methanone] | 1.3 | 
CC(C)[C@H](NC(=O)c1cc(-c2ccc(F)cc2)nn1CCCCCF)C(N)=O [Example 321, (S)-N-(1-amino-3-methyl-1-oxobutan-2-yl)-1-(5-fluoropentyl)-3-(4-fluorophenyl)-1H-pyrazole-5-carboxamide] | 1.29 | 
CC(C)(NC(=O)c1nn(CC2CCOCC2)c2ccccc12)c1ccccc1 [Example 322, N-(1-methyl-1-phenylethyl)-1-[(tetrahydro-2H-pyran-4-yl)methyl]-1H-indazole-3-carboxamide] | 1.27 | 
CC(C)[C@H](NC(=O)c1cn(Cc2ccccc2)c2ccccc12)C(N)=O [Example 323, N-[(1S)-1-(aminocarbonyl)-2-methylpropyl]-1-(phenylmethyl)-1H-indole-3-carboxamide] | 1.26 | 
O=C(c1cn(CCCCCF)c2ccccc12)N1CCN(Cc2ccccc2)CC1 [Example 324, (4-benzylpiperazin-1-yl)(1-(5-fluoropentyl)-1H-indol-3-yl)methanone, monohydrochloride] | 1.26 | 
CCCCn1cc(C(=O)c2ccc3ccccc3c2)c2ccccc21 [Example 325, (1-butyl-1H-indol-3-yl)(naphthalen-2-yl)-methanone] | 1.26 | 
CCCCCn1c(C)c(C(=O)c2ccc(C)c3ccccc23)c2ccccc21 [Example 326, (4-methyl-1-naphthalenyl)(2-methyl-1-pentyl-1H-indol-3-yl)-methanone] | 1.25 | 
O=C(Oc1ccc2cnccc2c1)c1cn(CC2CCCCC2)c2ccccc12 [Example 327, isoquinolin-6-yl 1-(cyclohexylmethyl)-1H-indole-3-carboxylate] | 1.24 | 
CCCCCn1cc(C(=O)N[C@H](C(=O)OC)C(C)C)c2ccccc21 [Example 328, N-[(1-pentyl-1H-indol-3-yl)carbonyl]-L-valine, methyl ester] | 1.24 | 
CCCCCn1cc(C(=O)Nc2cccc3ccccc23)c2ccccc21 [Example 329, N-1-naphthalenyl-1-pentyl-1H-indole-3-carboxamide] | 1.23 | 
O=C(Nc1cccc2ccccc12)c1cn(Cc2ccc(F)cc2)c2ccccc12 [Example 330, 1-(4-fluorobenzyl)-N-(naphthalen-1-yl)-1H-indole-3-carboxamide] | 1.23 | 
CCCCCc1cc(O)cc(OCCCCCCCCCCC(=O)NC2CC2)c1 [Example 331, N-cyclopropyl-11-(3-hydroxy-5-pentylphenoxy)-undecanamide] | 1.22 | 
O=C(Oc1ccc2ccccc2c1)c1nn(-c2ccccc2F)c2ccccc12 [Example 332, naphthalen-2-yl 1-(2-fluorophenyl)-1H-indazole-3-carboxylate] | 1.21 | 
O=C(NC12CC3CC(CC(C3)C1)C2)c1nn(CCCCCCl)c2ccccc12 [Example 333, N-((3s,5s,7s)-adamantan-1-yl)-1-(5-chloropentyl)-1H-indazole-3-carboxamide] |  | 1.21
C=CCCCn1cc(C(=O)c2ccc(C)c3ccccc23)c2ccccc21 [Example 334, (4-methylnaphthalen-1-yl)(1-(pent-4-en-1-yl)-1H-indol-3-yl)methanone] | 1.2 | 
CCC(F)CCn1nc(C(=O)NC(C(N)=O)C(C)C)c2ccccc21 (stereo not shown) [Example 335, N-(1-amino-3-methyl-1-oxobutan-2-yl)-1-(3-fluoropentyl)-1H-indazole-3-carboxamide] | 1.2 | 

SMILES | fold induction at 35 µM | Induction Fold [Fold]
CC(C)(C)n1cc(C(=O)c2cccc3ccccc23)c2ccccc21 [Example 336, (1-(tert-butyl)-1H-indol-3-yl)(naphthalen-1-yl)methanone] | 1.2 | 
O=C(Nc1ccc2ccccc2c1)c1cn(CCCCCF)c2ccccc12 [Example 337, 1-(5-fluoropentyl)-N-(naphthalen-2-yl)-1H-indole-3-carboxamide] | 1.19 | 
CCC(F)CCn1cc(C(=O)Nc2cccc3ccccc23)c2ccccc21 (stereo not shown) [Example 338, 1-(3-fluoropentyl)-N-(naphthalen-1-yl)-1H-indole-3-carboxamide] | 1.19 | 
CC(F)CCCn1cc(C(=O)Nc2cccc3ccccc23)c2ccccc21 (stereo not shown) [Example 339, 1-(4-fluoropentyl)-N-(naphthalen-1-yl)-1H-indole-3-carboxamide] | 1.19 | 
O=C(Oc1ccc2ccncc2c1)c1cn(CCCCCF)c2ccccc12 [Example 340, isoquinolin-7-yl 1-(5-fluoropentyl)-1H-indole-3-carboxylate] | 1.18 | 
O=C(c1cccc2ccccc12)c1cn(CCCCCCF)c2ccccc12 [Example 341, (1-(6-fluorohexyl)-1H-indol-3-yl)(naphthalen-1-yl)methanone] | 1.18 | 
CC(C)C(C)n1cc(C(=O)c2ccc3ccccc3c2)c2ccccc21 (stereo not shown) [Example 342, (1-(3-methylbutan-2-yl)-1H-indol-3-yl)(naphthalen-2-yl)methanone] | 1.17 | 
CC(C)[C@H](NC(=O)c1c2ccccc2nn1CC1CCCCC1)C(N)=O [Example 343, (S)-N-(1-amino-3-methyl-1-oxobutan-2-yl)-2-(cyclohexylmethyl)-2H-indazole-3-carboxamide] | 1.14 | 
CC(C)[C@H](NC(=O)c1cc(-c2ccc(F)cc2)n(CC2CCCCC2)n1)C(N)=O [Example 344, (S)-N-(1-amino-3-methyl-1-oxobutan-2-yl)-1-(cyclohexylmethyl)-5-(4-fluorophenyl)-1H-pyrazole-3-carboxamide] | 1.14 | 
CC(C)(O)CCn1c(=O)n(C(=O)N[C@H](C(N)=O)C(C)(C)C)c2ccccc21 [Example 345, N-[(1S)-1-(aminocarbonyl)-2,2-dimethylpropyl]-2,3-dihydro-3-(3-hydroxy-3-methylbutyl)-2-oxo-1H-benzimidazole-1-carboxamide] | 1.13 | 
CCCCCn1cc(C(=O)c2cccc3c(OC)cccc23)c2ccccc21 [Example 346, (5-methoxynaphthalen-1-yl)(1-pentyl-1H-indol-3-yl)methanone] | 1.13 | 
COc1ccc(N2CCNCC2)cc1 [Example 347, 1-(4-Methoxyphenyl) piperazine (hydrochloride)] | 1.12 | 
CNCC(C)Cc1ccc2c(c1)OCO2 (stereo not drawn) [Example 348, N,β-dimethyl-1,3-benzodioxole-5-propanamine, monohydrochloride] | 1.11 | 
CCCCCn1cc(C(=O)Nc2ccc3ccccc3c2)c2ccccc21 [Example 349, N-2-naphthalenyl-1-pentyl-1H-indole-3-carboxamide] | 1.1 | 
CCC(C)n1cc(C(=O)c2ccc3ccccc3c2)c2ccccc21 (stereo not shown) [Example 350, (1-(sec-butyl)-1H-indol-3-yl)(naphthalen-2-yl)-methanone] | 1.08 | 
CCCCCn1cc(C(=O)NC(C)(C)c2ccccc2)c2ccccc21 [Example 351, N-(1-methyl-1-phenylethyl)-1-pentyl-1H-indole-3-carboxamide] | 1.07 | 
COC(=O)[C@@H](NC(=O)c1cn(CCCCCF)c2ccccc12)C(C)C [Example 354, N-[[1-(5-fluoropentyl)-1H-indol-3-yl]carbonyl]-L-valine, methyl ester] | 1.05 | 
CC[C@H](C)[C@H](NC(=O)c1c2ccccc2nn1CCCCCF)C(N)=O [Example 355, N-(1-amino-3S-methyl-1-oxopentan-2S-yl)-2-(5-fluoropentyl)-2H-indazole-3-carboxamide] |  | 1.05
CC(C)(NC(=O)c1cn(CCCCCF)c2ccccc12)c1ccccc1 [Example 356, 1-(5-fluoropentyl)-N-(1-methyl-1-phenylethyl)-1H-indole-3-carboxamide] | 1.03 | 
O=C(NCC1CC1)c1cn(CCCCCF)c2ccccc12 [Example 357, N-(cyclopropylmethyl)-1-(5-fluoropentyl)-1H-indole-3-carboxamide] | 1.03 | 
O=C(OC12CC3CC(CC(C3)C1)C2)c1nn(CCCCCF)c2ccccc12 [Example 358, (3s,5s,7s)-adamantan-1-yl 1-(5-fluoropentyl)-1H-indazole-3-carboxylate] |  | 1.02
